According to ChEMBL document CHEMBL4477252, “Optimization of microtubule affinity regulating kinase (MARK) inhibitors with improved physical properties” (Bioorg Med Chem Lett, 2016):

How the values were obtained:
[1] = molecular target: Serine/threonine-protein kinase pim-1 (Homo sapiens, UniProt P11309); assay: Inhibition of full-length recombinant human His-tagged PIM1 expressed in baculovirus expression system by Z'-LYTE assay
[2] = molecular target: T1, Ephrin type-A receptor 8 (Homo sapiens, UniProt P29322); assay: Inhibition of recombinant human GST-tagged cytoplasmic EPHA8 expressed in baculovirus expression system by Z'-LYTE assay
T1 sequence (P29322 whole entry): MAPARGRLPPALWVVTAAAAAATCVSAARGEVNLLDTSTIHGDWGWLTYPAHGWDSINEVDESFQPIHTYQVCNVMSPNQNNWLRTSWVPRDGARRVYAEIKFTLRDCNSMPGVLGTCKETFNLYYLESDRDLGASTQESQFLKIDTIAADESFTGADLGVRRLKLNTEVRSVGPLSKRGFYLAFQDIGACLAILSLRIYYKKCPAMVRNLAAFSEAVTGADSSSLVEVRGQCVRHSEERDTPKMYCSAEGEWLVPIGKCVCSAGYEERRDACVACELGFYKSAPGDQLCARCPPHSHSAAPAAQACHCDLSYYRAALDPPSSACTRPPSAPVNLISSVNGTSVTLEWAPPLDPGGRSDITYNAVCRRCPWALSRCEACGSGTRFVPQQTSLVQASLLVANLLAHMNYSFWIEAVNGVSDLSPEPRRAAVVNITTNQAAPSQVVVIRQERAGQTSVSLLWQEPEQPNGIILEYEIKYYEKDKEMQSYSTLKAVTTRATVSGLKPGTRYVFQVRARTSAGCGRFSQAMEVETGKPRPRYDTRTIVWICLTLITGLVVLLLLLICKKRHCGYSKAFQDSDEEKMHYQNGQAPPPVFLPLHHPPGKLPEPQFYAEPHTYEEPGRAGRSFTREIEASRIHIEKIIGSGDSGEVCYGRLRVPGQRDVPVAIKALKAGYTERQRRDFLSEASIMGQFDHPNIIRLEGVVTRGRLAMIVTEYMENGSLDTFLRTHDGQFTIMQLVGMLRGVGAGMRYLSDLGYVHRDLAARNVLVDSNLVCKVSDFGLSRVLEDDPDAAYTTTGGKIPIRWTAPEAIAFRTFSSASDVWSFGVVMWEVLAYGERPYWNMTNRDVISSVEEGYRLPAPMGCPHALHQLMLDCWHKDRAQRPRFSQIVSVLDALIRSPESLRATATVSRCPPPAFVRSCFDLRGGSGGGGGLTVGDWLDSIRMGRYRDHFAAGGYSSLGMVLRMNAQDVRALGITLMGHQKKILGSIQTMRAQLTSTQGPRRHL

[3] = molecular target: T2, Mitogen-activated protein kinase 13 (Homo sapiens, UniProt O15264); assay: Inhibition of full-length recombinant human His-tagged MAPK13 expressed in baculovirus expression system by Z'-LYTE assay
T2 sequence (O15264 whole entry): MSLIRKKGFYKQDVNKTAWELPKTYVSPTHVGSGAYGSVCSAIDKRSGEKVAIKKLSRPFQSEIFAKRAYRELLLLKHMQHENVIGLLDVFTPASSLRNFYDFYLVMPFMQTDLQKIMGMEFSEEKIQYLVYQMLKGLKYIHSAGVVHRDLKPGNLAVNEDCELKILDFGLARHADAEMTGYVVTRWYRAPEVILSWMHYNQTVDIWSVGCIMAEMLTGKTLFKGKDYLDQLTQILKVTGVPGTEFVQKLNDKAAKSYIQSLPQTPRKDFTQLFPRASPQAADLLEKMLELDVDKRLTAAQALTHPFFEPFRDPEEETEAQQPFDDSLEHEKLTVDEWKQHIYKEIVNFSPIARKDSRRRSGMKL

[4] = molecular target: Fibroblast growth factor receptor 2 (Homo sapiens, UniProt P21802); assay: Inhibition of recombinant human His-tagged cytoplasmic FGFR2 expressed in baculovirus expression system by Z'-LYTE assay
Chain of Fibroblast growth factor receptor 2 (P21802 whole entry): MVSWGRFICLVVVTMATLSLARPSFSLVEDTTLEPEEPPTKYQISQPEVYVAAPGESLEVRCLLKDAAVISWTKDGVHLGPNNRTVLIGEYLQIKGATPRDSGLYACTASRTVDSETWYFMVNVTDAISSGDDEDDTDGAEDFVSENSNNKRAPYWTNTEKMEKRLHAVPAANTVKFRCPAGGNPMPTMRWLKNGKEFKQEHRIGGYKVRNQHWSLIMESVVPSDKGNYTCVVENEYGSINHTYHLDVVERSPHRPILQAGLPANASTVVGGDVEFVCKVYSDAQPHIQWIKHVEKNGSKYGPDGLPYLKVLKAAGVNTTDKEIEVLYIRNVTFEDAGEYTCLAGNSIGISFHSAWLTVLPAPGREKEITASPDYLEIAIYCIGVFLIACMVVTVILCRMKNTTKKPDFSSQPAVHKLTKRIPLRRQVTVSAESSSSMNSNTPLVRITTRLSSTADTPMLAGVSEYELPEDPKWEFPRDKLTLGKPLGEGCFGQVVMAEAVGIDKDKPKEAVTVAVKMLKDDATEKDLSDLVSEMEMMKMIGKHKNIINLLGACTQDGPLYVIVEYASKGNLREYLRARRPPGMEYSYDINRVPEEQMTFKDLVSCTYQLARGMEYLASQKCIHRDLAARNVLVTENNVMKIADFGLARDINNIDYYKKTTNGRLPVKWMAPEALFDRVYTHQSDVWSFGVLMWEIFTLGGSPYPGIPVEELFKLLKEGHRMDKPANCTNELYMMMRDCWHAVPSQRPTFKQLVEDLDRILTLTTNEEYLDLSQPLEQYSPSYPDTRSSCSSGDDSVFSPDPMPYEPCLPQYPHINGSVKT

[5] = molecular target: Ribosomal protein S6 kinase alpha-3 (Homo sapiens, UniProt P51812); assay: Inhibition of full-length recombinant human His-tagged RPS6KA3 expressed in baculovirus expression system by Z'-LYTE assay
Chain of Ribosomal protein S6 kinase alpha-3 (P51812 whole entry): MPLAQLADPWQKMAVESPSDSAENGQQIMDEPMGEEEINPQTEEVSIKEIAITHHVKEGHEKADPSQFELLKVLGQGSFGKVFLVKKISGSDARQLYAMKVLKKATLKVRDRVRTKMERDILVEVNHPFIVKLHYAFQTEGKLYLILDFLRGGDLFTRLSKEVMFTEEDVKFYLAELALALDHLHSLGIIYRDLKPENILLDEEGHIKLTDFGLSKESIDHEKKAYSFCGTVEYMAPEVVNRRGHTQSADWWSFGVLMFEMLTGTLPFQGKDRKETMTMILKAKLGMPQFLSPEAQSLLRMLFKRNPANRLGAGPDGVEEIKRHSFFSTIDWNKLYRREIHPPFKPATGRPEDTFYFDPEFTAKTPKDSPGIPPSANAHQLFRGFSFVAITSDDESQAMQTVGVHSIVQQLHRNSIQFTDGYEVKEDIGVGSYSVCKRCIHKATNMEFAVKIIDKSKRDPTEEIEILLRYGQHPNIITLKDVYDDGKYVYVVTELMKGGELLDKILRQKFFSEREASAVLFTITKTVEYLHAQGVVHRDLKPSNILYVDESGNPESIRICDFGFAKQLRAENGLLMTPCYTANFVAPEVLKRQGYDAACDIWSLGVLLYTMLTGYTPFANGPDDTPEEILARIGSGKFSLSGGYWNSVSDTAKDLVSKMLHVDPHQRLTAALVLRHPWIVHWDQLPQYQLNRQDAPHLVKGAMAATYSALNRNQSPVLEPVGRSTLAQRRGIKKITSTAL

[6] = molecular target: Serine/threonine-protein kinase PAK 1 (Homo sapiens, UniProt Q13153); assay: Inhibition of full-length recombinant human GST-tagged PAK1 expressed in baculovirus expression system by Z'-LYTE assay
Chain of Serine/threonine-protein kinase PAK 1 (Q13153 whole entry): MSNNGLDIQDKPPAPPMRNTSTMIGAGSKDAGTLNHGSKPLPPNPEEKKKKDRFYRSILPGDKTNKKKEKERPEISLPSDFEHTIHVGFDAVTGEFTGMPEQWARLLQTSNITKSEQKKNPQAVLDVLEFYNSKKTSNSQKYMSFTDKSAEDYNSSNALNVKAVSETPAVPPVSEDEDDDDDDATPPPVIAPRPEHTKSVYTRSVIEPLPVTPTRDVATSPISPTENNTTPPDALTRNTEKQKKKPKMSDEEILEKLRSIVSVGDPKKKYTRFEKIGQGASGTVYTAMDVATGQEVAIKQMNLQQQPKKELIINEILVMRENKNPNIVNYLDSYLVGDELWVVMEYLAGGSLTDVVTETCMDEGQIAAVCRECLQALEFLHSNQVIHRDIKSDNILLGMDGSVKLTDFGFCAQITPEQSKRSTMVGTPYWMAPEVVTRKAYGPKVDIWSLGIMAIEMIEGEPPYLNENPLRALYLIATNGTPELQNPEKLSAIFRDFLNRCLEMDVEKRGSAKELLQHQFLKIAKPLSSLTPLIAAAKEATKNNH

[7] = molecular target: T3, Serine/threonine-protein kinase TBK1 (Homo sapiens, UniProt Q9UHD2); assay: Inhibition of full-length recombinant human GST-tagged TBK1 expressed in insect cells by Z'-LYTE assay
T3 sequence (Q9UHD2 whole entry): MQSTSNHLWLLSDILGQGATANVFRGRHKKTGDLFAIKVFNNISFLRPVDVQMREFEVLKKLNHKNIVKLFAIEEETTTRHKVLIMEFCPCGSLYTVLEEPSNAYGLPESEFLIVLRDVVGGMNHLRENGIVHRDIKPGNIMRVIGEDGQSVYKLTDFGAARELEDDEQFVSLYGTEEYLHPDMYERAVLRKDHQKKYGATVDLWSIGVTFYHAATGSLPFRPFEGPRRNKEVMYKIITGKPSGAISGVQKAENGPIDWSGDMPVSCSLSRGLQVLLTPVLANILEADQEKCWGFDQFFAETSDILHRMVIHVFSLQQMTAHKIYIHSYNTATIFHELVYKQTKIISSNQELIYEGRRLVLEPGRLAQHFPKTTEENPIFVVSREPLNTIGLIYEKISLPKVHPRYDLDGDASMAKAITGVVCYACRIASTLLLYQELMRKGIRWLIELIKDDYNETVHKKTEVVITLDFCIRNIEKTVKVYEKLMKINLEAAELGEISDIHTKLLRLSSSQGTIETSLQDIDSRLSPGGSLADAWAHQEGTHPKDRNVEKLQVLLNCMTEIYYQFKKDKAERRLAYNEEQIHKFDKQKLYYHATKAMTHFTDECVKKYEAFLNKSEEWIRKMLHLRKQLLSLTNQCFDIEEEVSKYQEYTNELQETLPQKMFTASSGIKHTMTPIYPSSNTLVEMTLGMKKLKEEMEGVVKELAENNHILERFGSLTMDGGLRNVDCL

Chain of Serine/threonine-protein kinase pim-1 (P11309 whole entry): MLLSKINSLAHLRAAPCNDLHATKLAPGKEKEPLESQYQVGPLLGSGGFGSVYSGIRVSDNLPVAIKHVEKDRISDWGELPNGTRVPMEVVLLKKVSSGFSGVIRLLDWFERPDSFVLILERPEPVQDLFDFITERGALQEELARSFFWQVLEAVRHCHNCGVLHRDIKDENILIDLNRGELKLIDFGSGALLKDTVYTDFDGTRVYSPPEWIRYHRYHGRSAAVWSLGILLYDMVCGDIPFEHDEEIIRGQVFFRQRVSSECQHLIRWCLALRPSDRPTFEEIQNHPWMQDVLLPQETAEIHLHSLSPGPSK

Cn1cc(-c2cnc3c(-c4csc(C(=O)NCC(F)(F)F)c4)cnn3c2)cn1
IC50 [1]: 9900 nM
IC50 [2]: 29 nM
IC50 [3]: 2200 nM
IC50 [4]: 170 nM
IC50 [5]: 380 nM
IC50 [6]: 6200 nM
IC50 [7]: < 10 nM

Cc1sc(C(=O)N[C@@H]2[C@H](N)CCCC2(F)F)cc1-c1cnn2cc(Cl)cnc12
IC50 [1]: 1600 nM
IC50 [2]: 16000 nM
IC50 [3]: 160 nM
IC50 [4]: 17000 nM
IC50 [5]: 47 nM
IC50 [6]: 2100 nM
IC50 [7]: < 10 nM

O=C(NCC(F)(F)F)c1cc(-c2cnn3cc(-c4ccc(OCCN5CCCCC5)cc4)cnc23)cs1
IC50 [1]: 590 nM
IC50 [2]: 21 nM
IC50 [3]: 13000 nM
IC50 [4]: 70 nM
IC50 [5]: 260 nM
IC50 [6]: 8300 nM
IC50 [7]: < 10 nM

Cn1cc(-c2cnc3c(-c4csc(C(=O)N[C@@H]5CCCC[C@@H]5N)c4)cnn3c2)cn1 (racemic)
IC50 [1]: 2800 nM
IC50 [2]: 2.9 nM
IC50 [3]: 39 nM
IC50 [4]: 11 nM
IC50 [5]: < 1 nM
IC50 [6]: 24 nM
IC50 [7]: < 1 nM
